Results on two compounds are retold here after patent publication US20240122880A1, “COMPOSITIONS FOR TREATING HYPERCHOLESTEROLEMIA AND PREPARATION METHODS THEREOF” (UNIVERSITY OF SAN AGUSTIN, priority 2020, published 2024).

In one experiment the test system is lipase. Put plainly: Lipase inhibition assay (glycerol generated from cleavage of triglycerides, Sigma MAK046 kit). As to conditions: relative to untreated lipase enzyme. The experiment is classed as biochemical.
A further experiment addresses T1, HMG-CoA reductase (Homo sapiens, UniProt P04035).
T1 construct: by the catalytic subunit of 3-hydroxy-3-methylglutaryl CoA reductase; purchased Sigma Aldrich CS1090
T1 sequence (P04035 340-888 limits assumed): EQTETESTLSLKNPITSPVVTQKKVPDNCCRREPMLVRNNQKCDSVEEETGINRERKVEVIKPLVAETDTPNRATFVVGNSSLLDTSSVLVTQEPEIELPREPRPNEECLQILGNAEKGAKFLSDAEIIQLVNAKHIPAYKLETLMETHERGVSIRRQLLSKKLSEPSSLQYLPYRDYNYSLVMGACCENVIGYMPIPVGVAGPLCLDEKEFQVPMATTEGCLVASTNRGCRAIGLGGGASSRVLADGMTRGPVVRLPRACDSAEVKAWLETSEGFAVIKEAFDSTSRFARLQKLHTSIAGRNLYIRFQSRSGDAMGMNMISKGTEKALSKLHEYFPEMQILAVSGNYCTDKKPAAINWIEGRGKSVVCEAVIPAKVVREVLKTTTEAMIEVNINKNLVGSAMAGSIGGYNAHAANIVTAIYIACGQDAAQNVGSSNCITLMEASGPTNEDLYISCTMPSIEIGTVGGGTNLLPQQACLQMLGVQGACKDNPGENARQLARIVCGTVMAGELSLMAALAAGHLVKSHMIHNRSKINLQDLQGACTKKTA
Put plainly: HMG-CoA reductase inhibition assay (NADPH oxidation at 340 nm, Sigma CS1090 kit). The experiment is classed as biochemical. As to conditions: sample concentration 2.1 μg/mL. Here is the method: The assay was based on the spectrophotometric measurement of the decrease in absorbance at 340 nm, which represents the oxidation of Nicotinamide Adenine Dinucleotide Phosphate (NADPH) by the catalytic subunit of 3-hydroxy-3-methylglutaryl CoA reductase in the presence of substrate HMG-CoA. All storage and reagent preparations were performed according to the protocol (CS1090, Sigma Aldrich®, St. Louis, MO, USA).
Assay buffer (1×) in the HMG-CoA assay kit was added to all samples. 184 μL for the blank, 182 μL for the activity control, 181 μL for the inhibition control and samples according to the manufacturer's instructions in the Sigma-Aldrich® CS1090 assay kit.
Pravastatin™ (2.1 μg/mL) positive control, 20 μL of […], core (100 mg/mL final concentration) and 20 μL of 50 mg/mL stem (5 mg/mL final concentration) crude extracts were added to its assay buffers. Lower reaction concentration of extracts (20 μL of 250 mg/mL to obtain 25 mg/mL final concentration of flesh and core crude extracts) was also tested against HMG-CoA reductase enzyme.
Four μL of NADPH and 12 μL HMG-CoA substrate were also added to the treatments. The HMG-CoA reductase enzyme (2 μL) was kept on ice until added to the activity, inhibition controls, and samples.
The absorbance at 340 nm was monitored for every 20 seconds for up to 10 minutes using CLARIOStar™ plate reader. […]

Procedure for lipase: The lipase inhibition activities of the pineapple flesh, core, and stem crude extracts were determined by measuring the glycerol generated from the cleavage of triglycerides. The storage and preparation instruction were done according to the stated protocol of MAK, 046, Sigma Aldrich®, St. Louis, MO, USA.
Twenty μL of 750 mg/mL flesh, core, and stem at 100 mg/mL final concentration crude extracts were added to their respective wells.
Two μL of the lipase and Orlistat™ at 100 mg/mL and 10 mg/mL, respectively, were added to wells to serve as negative and positive control. All standards and samples were adjusted to 50 μL by adding Lipase Assay Buffer. A 100-μL reaction mix consisting of 93 μL Lipase Assay Buffer, 2 μL peroxidase substrate, 2 μL enzyme mix and 3 μL of lipase substrate was added to each well.
Absorbance was read at 570 nm every five minutes using CLARIOStar™ microplate reader at 37° C. incubation at slow kinetics mode for two hours. The percent lipase inhibition was calculated relative to the untreated lipase enzyme.

Consider `CCCCCCCCCCC[C@@H](C[C@@H]1OC(=O)[C@H]1CCCCCC)OC(=O)[C@H](CC(C)C)NC=O` [Orlistat ™, Orlistat], for which the Lipase inhibition activity in the experiment with lipase (sample concentration 10 mg/mL) came to 100±0.05%; in the experiment with lipase (sample concentration 100 mg/mL) it was 100 ± 0.05%.
As for `CC[C@H](C)C(=O)O[C@H]1C[C@H](O)C=C2C=C[C@H](C)[C@H](CC[C@@H](O)C[C@@H](O)CC(=O)O)[C@H]21` [Pravstatin ™, Pravastatin], on HMG-CoA reductase, the “HMG-COA reductase inhibition activity” value came out at 82%.
